Measured values as given in patent US11058619B2, “Carboxylated polyphenol derivatives and their cosmetic use” (L'ORÉAL, priority 2016, dated 2021).
Values joined by “and” are separate entries in the source; they are usually repeats but may differ in a detail not shown here. Equal values may be shown once.

Key:
HAS3 marker = assay: Gene marker expression (HAS3) in human epidermal keratinocytes by RT-qPCR; assay type: cell-based
Experimental: Human epidermal keratinocytes were seeded in 48 well-culture plate and cultured for 48 hours at 37° C. and 5% of CO2 in culture medium with renewal of culture medium after the first 24 hours. At the end of incubation, culture medium was replaced by assay medium containing or not (control) raw material and cells were incubated for additional 24 hours. All experimental conditions were performed in n=3. At the end of treatment, cells were washed twice in PBS (w/o CaCl2, w/o MgCl2) and RNA extraction was performed using MagMAX™-96 Total RNA Isolation Kit (Ambion cat n° AM8130) according to manufacturer recommendation. RNA quantification and quality control were performed using Labchip GX (Perkin Elmer). Relative expression of selected markers was measured by two steps RT-qPCR. In a first step, a reverse transcription was performed using the Quantitect® Reverse transcription kit (QIAGEN) and according to manufacturer recommendation. Then, PCR experiments were performed using a LightCycler® 480 Real-Time PCR System measuring SYBR®Green incorporation (Roche).

normal human melanocytes = assay: Depigmenting activity: melanin produced by normal human melanocytes in vitro; assay type: cell-based
Experimental: The measurement of the depigmenting activity (reduction in the production of melanin) of compounds of formula (I) was performed by assaying the melanin produced by normal human melanocytes in vitro as follows.
First of all, normal human melanocytes are cultured and dispensed into 384 wells. After 24 hours, the culture medium was replaced with a medium containing compounds of formula (I) to be evaluated. The cells were incubated for 72 hours before measurement of the final optical density, which measures the amount of melanin produced by the melanocytes. A […] is performed using a wide concentration range of the compounds evaluated. Thus, by making the concentrations and the measurements of melanin correspond, it is possible to determine an IC50 in μM: concentration at which 50% decrease in melanin synthesis is achieved.

O=C(O)c1c(O)cc(/C=C/c2ccc(O)cc2)cc1O [Compound W]
Relative expression (UA) of HAS3 (HAS3 marker; 30 μM, 24 hours, human epidermal keratinocytes, individual replicates (n=3)): 3.44E−03 UA and 3.32E−03 UA and 3.61E−03 UA | Fold change Mean of HAS3 expression vs control (HAS3 marker; 30 μM, 24 hours, mean of n=3): 2.45 | Fold change (Nb) of HAS3 expression (HAS3 marker; 30 μM, 24 hours, vs control, individual replicates (n=3)): 2.432 Nb and 2.35 Nb and 2.553 Nb | cytotoxicity (HAS3 marker; human epidermal keratinocytes, at 30 μM): without cytotoxicity | IC50 (normal human melanocytes; Melanocyte, normal human melanocytes, 72 hours incubation, optical density, read-out: IC50, inhibiting effect on the production of melanin): 25 µM | Mean percentage Depigmentation (normal human melanocytes; concentration 0.000003125 (unit not given)): 15.6% | Mean percentage Depigmentation (normal human melanocytes; concentration 0.00000625 (unit not given)): 22.8% | Mean percentage Depigmentation (normal human melanocytes; concentration 0.0000125 (unit not given)): 32.8% | Mean percentage Depigmentation (normal human melanocytes; concentration 0.000025 (unit not given)): 43.0% | Mean percentage Depigmentation (normal human melanocytes; concentration 0.00005 (unit not given)): 76.7% | Mean percentage Depigmentation (normal human melanocytes; concentration 0.0001 (unit not given)): 99.7% | Mean percentage Depigmentation (normal human melanocytes; concentration 0.0002 (unit not given)): 125.6% | Mean percentage Depigmentation (normal human melanocytes; concentration 1.5625*10^−6 (unit not given)): 9.7% | Mean percentage Depigmentation (normal human melanocytes; concentration 3.90625*10^−7 (unit not given)): −0.9% | Mean percentage Depigmentation (normal human melanocytes; concentration 7.8125*10^−7 (unit not given)): 5.5% | depigmenting effect (normal human melanocytes; normal human melanocytes): showed a depigmenting effect | cytotoxicity (normal human melanocytes; normal human melanocytes, in the concentration range tested): without cytotoxicity
